Experimental data: ChEMBL document CHEMBL5338707, “Design, synthesis and bioactivity evaluation of favorable evodiamine derivative scaffold for developing cancer therapy” (Eur J Med Chem, 2022)
The source made the active and inactive calls. The calls are words filed in the database; no cut-off is given here.

What was measured:
[1] = target: T1, DNA topoisomerase 1 (Homo sapiens) (UniProt P11387); assay: Inhibition of Topoisomerase 1 (unknown origin) at 100 uM incubated for 15 mins by electrophoretic analysis
T1 sequence (whole entry): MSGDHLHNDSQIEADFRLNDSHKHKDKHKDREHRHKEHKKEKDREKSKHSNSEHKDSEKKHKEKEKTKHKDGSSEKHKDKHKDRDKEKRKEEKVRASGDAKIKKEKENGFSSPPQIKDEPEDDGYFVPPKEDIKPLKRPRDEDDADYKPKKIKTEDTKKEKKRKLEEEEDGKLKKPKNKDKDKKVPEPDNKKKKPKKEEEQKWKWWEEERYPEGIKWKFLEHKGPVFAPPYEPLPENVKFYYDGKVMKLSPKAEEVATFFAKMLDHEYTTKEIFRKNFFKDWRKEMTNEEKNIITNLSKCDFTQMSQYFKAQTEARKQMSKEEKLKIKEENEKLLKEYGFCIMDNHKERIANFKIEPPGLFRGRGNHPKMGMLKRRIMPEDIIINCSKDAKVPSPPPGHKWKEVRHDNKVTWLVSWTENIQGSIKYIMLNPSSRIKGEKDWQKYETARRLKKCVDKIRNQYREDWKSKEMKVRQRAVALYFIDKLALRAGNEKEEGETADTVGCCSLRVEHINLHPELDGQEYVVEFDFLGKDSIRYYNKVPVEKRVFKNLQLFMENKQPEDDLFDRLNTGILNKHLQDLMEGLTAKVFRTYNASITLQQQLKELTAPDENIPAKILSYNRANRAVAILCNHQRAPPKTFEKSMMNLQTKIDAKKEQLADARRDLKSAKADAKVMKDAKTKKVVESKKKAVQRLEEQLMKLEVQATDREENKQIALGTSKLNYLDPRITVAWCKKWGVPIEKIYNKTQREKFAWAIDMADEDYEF

[2] = target: T1, DNA topoisomerase 1 (Homo sapiens); assay: Inhibition of Topoisomerase 1 (unknown origin) at 25 uM incubated for 15 mins by electrophoretic analysis relative to control
[3] = target: T1, DNA topoisomerase 1 (Homo sapiens); assay: Inhibition of Topoisomerase 1 (unknown origin) at 50 uM incubated for 15 mins by electrophoretic analysis
MGC-803 [4] = assay: Cell cycle arrest in human MGC-803 cells assessed as accumulation of cells at S phase at 48 nM incubated for 24 hrs by PI staining based flow cytometric analysis (Rvb =7.84%); format: functional
SGC-7901 [5] = assay: Induction of apoptosis in human SGC-7901 cells assessed as necrotic cells at 96 nM incubated for 24 hrs by AnnexinV-FITC/PI staining based flow cytometric analysis (reference value: 0.63%); format: functional
MGC-803 [6] = assay: Cell cycle arrest in human MGC-803 cells assessed as accumulation of cells at G0/G1 phase at 48 nM incubated for 24 hrs by PI staining based flow cytometric analysis (Rvb =76.60%); format: functional
SGC-7901 [7] = assay: Induction of apoptosis in human SGC-7901 cells assessed as early apoptotic cells at 96 nM incubated for 24 hrs by AnnexinV-FITC/PI staining based flow cytometric analysis (reference value: 0.47%); format: functional
SGC-7901 [8] = assay: Induction of apoptosis in human SGC-7901 cells assessed as late apoptotic cells at 96 nM incubated for 24 hrs by AnnexinV-FITC/PI staining based flow cytometric analysis (reference value: 2.00%); format: functional
MGC-803 [9] = assay: Induction of apoptosis in human MGC-803 cells assessed as early apoptotic cells at 96 nM incubated for 24 hrs by AnnexinV-FITC/PI staining based flow cytometric analysis (reference value: 0.38%); format: functional
SGC-7901 [10] = assay: Cell cycle arrest in human SGC-7901 cells assessed as accumulation of cells at G0/G1 phase at 48 nM incubated for 24 hrs by PI staining based flow cytometric analysis (Rvb =84.12%); format: functional
MGC-803 [11] = assay: Cell cycle arrest in human MGC-803 cells assessed as accumulation of cells at G2/M phase at 48 nM incubated for 24 hrs by PI staining based flow cytometric analysis (Rvb =15.42%); format: functional
SGC-7901 [12] = assay: Cell cycle arrest in human SGC-7901 cells assessed as accumulation of cells at S phase at 48 nM incubated for 24 hrs by PI staining based flow cytometric analysis (Rvb =18.41%); format: functional
SGC-7901 [13] = assay: Induction of apoptosis in human SGC-7901 cells assessed as viable cells at 96 nM incubated for 24 hrs by AnnexinV-FITC/PI staining based flow cytometric analysis (reference value: 96.94%); format: functional; conditions: read-out: Activity
MGC-803 [14] = assay: Induction of apoptosis in human MGC-803 cells assessed as late apoptotic cells at 96 nM incubated for 24 hrs by AnnexinV-FITC/PI staining based flow cytometric analysis (reference value: 0.52%); format: functional
SGC-7901 [15] = assay: Cell cycle arrest in human SGC-7901 cells assessed as accumulation of cells at G2/M phase at 48 nM incubated for 24 hrs by PI staining based flow cytometric analysis (Rvb =18.84%); format: functional
[16] = Toxicity in BALB/C mouse xenografted with human MGC-803 cells assessed as decrease in body weight at 0.5 mg/kg, ip administered once daily for 17 days; format: organism-based; conditions: in vivo, 408 h, time 17 day
MGC-803 [17] = assay: Induction of apoptosis in human MGC-803 cells assessed as necrotic cells at 96 nM incubated for 24 hrs by AnnexinV-FITC/PI staining based flow cytometric analysis (reference value: 0.53%); format: functional
MGC-803 [18] = assay: Antitumor activity against human MGC-803 cells xenografted in BALB/C mouse assessed as tumor growth inhibition at 0.5 mg/kg, ip administered once a day for 17 days relative to control; format: functional; conditions: MGC-803, 408 h, time 17 day, read-out: TGI
MGC-803 [19] = assay: Induction of apoptosis in human MGC-803 cells assessed as viable cells at 96 nM incubated for 24 hrs by AnnexinV-FITC/PI staining based flow cytometric analysis (reference value: 98.59%); format: functional; conditions: read-out: Activity

Row | inhibition [1] | inhibition [2] | inhibition [3] | Compound | Activity (MGC-803 [4]) | Activity (SGC-7901 [5]) | Activity (MGC-803 [6]) | Activity (SGC-7901 [7]) | Activity (SGC-7901 [8]) | Activity (MGC-803 [9]) | Activity (SGC-7901 [10]) | Activity (MGC-803 [11]) | Activity (SGC-7901 [12]) | viability at 0.096 µM (SGC-7901 [13]) | Activity (MGC-803 [14]) | Activity (SGC-7901 [15]) | Activity [16] | Activity (MGC-803 [17]) | inhibition in vivo at 0.5 mg/kg (MGC-803 [18]) | viability at 0.096 µM (MGC-803 [19])
1 | Active | 46.2% | Active | Cc1ccc2c(c1)C(=O)N1CCc3c([nH]c4ccc(C)cc34)C1N2c1cccc(F)c1 (centres undefined) |  |  |  |  |  |  |  |  |  |  |  |  |  |  |  | 
2 |  |  |  | CC[C@@]1(O)C(=O)OCc2c1cc1n(c2=O)Cc2cc3c(CN(C)C)c(O)ccc3nc2-1 [TOPOTECAN] | 6.84% | 1.22% | 79.72% | 0.8% | 9.93% | 5.23% | 58.3% | 13.27% | 18.52% | 88.1% | 15.95% | 22.72% | Toxic | 1.75% | 67% | 77%
